Data published in patent US8846107B2, “In situ generation of peroxycarboxylic acids at alkaline pH, and methods of use thereof” (priority 2010, dated 2014).

Key:
[1] = Coupling of precipitated POOA solution by surfactants and hydrotropes; type: physicochemical; details: 1000 ppm POOA in DI Water
Description: A variety of surfactants were analyzed for coupling and/or dispersion stabilizing of a peroxycarboxylic acid composition generated according to the methods of the invention. In particular, a peroxyoctanoic acid (POOA) composition in deionized water produced according to the invention was analyzed for coupling and/or dispersion stabilization using the dispersing agents set forth in Table 14A.
Given the very limited water solubility of POOA in its protonated form, acidification of the alkaline perhydrolysis solutions of the same causes immediate precipitation and rapid phase separation. In this example various surfactants and hydrotropes were evaluated for their ability to couple the POOA. In Table 14A it can be seen that the most efficient agents for coupling an already precipitated solution of POOA were samples I and II.

[2] = test system: Escherichia coli ATCC 11229; experiment: Sanitizing efficacy of in situ generated peroxycarboxylic acids; type: cell-based; details: 25° C.
Description: A study was run to evaluate the sanitizing efficacy of mixtures of peroxycarboxylic acids generated in situ from esters under alkaline conditions. For this study the following ester based peroxycarboxylic acid forming compositions were used.
The above Peroxycarboxylic acid premixes were then tested alone at various concentrations, and mixed at various concentrations against Staphylococcus aureus ATCC 6538, and Escherichia coli ATCC 11229.
The test substances were tested against Staphylococcus aureus ATCC 6538, and Escherichia coli ATCC 11229 at 25° C.±1° C. for 30 seconds. A neutralizer screen was performed as part of the testing to verify that the neutralizer adequately neutralized the product and was not detrimental to the tested organisms.

[3] = Dispersion stability of acidified POOA solutions with dispersing agents; type: physicochemical
Description: The SLS, LAS and SOA dispersing agents were then further examined for efficacy in stabilizing and/or dispersing in 1% or lower sulfuric acid solutions. Solutions were made according to the following order (3, 6, 9, 12, 1, 4, 7, 10, 2, 5, 8, 11, 13, 14). Solution 13 was made as 1 through 12 with the addition of 50 mL of 5 grain hard water to the aliquot of alkaline reaction solution followed by swirling with the surface aliquot and then additional 50 mL of 5 grain hard water, followed within about 5 seconds by 50 mL of 5 grain 2% sulfuric acid and swirled. Solution 14 was made by direct addition of 1% sulfuric acid (5 grain) without pre-dilution, but after moments of swirling with SLS aliquot. All concentrations are shown in ppm.
For the POOA solutions the targeted peracid concentration was based upon initial average of about 5.40 wt-% of ongoing cold alkaline peracid hydrolysis according to the invention (**), wherein the aliquot was constant while POOA was increasing.
The appearance of an oil sheen was regarded as a pass or fail.

[4] = 35 ppm POAA, pH 5.00, 30 seconds
[5] = 61 ppm POAA, pH 5.00, 30 seconds
[6] = 13 ppm POOA, pH 4.98, 30 seconds
[7] = 15 ppm POOA, pH 5.01, 30 seconds
[8] = 20 ppm POOA, pH 4.98, 30 seconds

Molecule: Alkyl Polyglycosides [VI]
- Amount of (B) Required for Coupling (g/200 g aq POOA) [1]: 2.46 g/200 g aq POOA

Molecule: Sodium Lauryl Ether Sulfate [III]
- Amount of (B) Required for Coupling (g/200 g aq POOA) [1]: >0.94 g/200 g aq POOA

Molecule: CC(=O)OO [POAA, peroxyacetic acid]
- Average Log10 Survivors [2, 4]: 7.27 Log10
- Log Reduction [2, 4]: 0.78 Log
- Survivors (CFU/mL) [2, 4]: 1.85 × 10^7 CFU/mL
- Average Log10 Survivors [2, 5]: 3.93 Log10
- Log Reduction [2, 5]: 4.12 Log
- Survivors (CFU/mL) [2, 5]: 3.0 × 10^3 CFU/mL

Molecule: Linear Aryl Sulfonate [II]
- Amount of (B) Required for Coupling (g/200 g aq POOA) [1]: 0.65 g/200 g aq POOA
- Amount of (B) Required for Coupling (g/200 g aq POOA) ([1]; listed as LAS): 0.64 g/200 g aq POOA
- oil sheen at 23 h ([3]; acidified POOA in 10,000 ppm H2SO4, oil sheen regarded as fail): minimal surface oil

Molecule: CCCCCCCCCCCCOS(=O)(=O)[O-].[Na+] [I, Sodium Lauryl Sulfate]
- Amount of (B) Required for Coupling (g/200 g aq POOA) [1]: 0.64 g/200 g aq POOA
- dispersant performance for acidified POOA ([3]; acidic, aqueous dispersions of POOA): exceptional dispersant

Molecule: CCCCCCCCS(=O)(=O)[O-].[Na+] [VII, Sodium octanesulfonate]
- Amount of (B) Required for Coupling (g/200 g aq POOA) [1]: 6.60 g/200 g aq POOA

Molecule: CCCCCCCC(=O)OO [POOA, peroxyoctanoic acid]
- Average Log10 Survivors [2, 6]: 7.59 Log10
- Log Reduction [2, 6]: 0.46 Log
- Survivors (CFU/mL) [2, 6]: 4.22 × 10^7 CFU/mL
- Average Log10 Survivors [2, 7]: 7.15 Log10
- Log Reduction [2, 7]: 0.90 Log
- Survivors (CFU/mL) [2, 7]: 1.06 × 10^7 CFU/mL
- Average Log10 Survivors [2, 8]: 5.85 Log10
- Log Reduction [2, 8]: 2.20 Log

Molecule: CCCCC(CC)COC(=O)CC(C(=O)OCC(CC)CCCC)S(=O)(=O)[O-].[Na+] (centres unmarked) [X, Sodium dioctyl Sulfosuccinates]
- Amount of (B) Required for Coupling (g/200 g aq POOA) [1]: >2.0 g/200 g aq POOA
